Reference: US7585839B2, “Medical uses of intercellular communication facilitating compounds” (Zealand Pharma A/S, priority 2001, dated 2009)
[ ]: non-standard residue; d: D form. Hyp = O=C(O)[C@@H]1C[C@@H](O)CN1

Columns and labels:
human osteoblastic cells = test: DDT-induced uncoupling in human osteoblast cells, Lucifer Yellow microinjection; format: cell-based; conditions: 13 μM, 60 minutes; control 14.5 cells
Procedure: Human osteoblast cells: Cells were isolated from human bone marrow obtained by puncture of the posterior iliac spine of healthy volunteers (aged 20-36): 10-15 ml marrow material was collected in 15 ml PBS+Ca, Mg (Life Technologies, Cat.No. 14040) with 100 U/ml Heparin (Sigma, Cat.No. H-3149). The mononuclear fraction of the marrow was isolated on a Lymphoprep gradient (Nycomed Pharma, Cat.No. 1001967), by centrifugation at 2200 rpm for 30 min. After harvesting, the mononuclear fraction was washed once with culture medium and centrifuged at 1800 rpm for 10 min. Subsequently cells were counted and plated in culture medium at 8×10^6 cells/100 mm dish. hOB medium (all reagents obtained from Life Technologies): MEM w/o Phenol Red w/Glutamax (Cat.No. 041-93013) supplemented with 10% heat inactivated fetal calf serum (Cat.No. 10106) and 0.1% Penicillin/Streptomycin (Cat.No. 15140). Medium was changed the following day and the cells were cultured at 37° C. in 5%CO2 with medium change every 7 days. After 3-4 weeks of culture the cells had reached 70% confluence. The medium was then supplemented with 100 nM Dexamethasone (Sigma, Cat.No. D-4902) for 7 days. Cells were then plated for video imaging experiments: a 25 mm #1 glass coverslip was placed in a 35 mm dish (or each well of a 6-well multidish), cells were plated at 2.5×10^5 cells/coverslip and cultured for 2-3 days before use. […]

[1] = test system: phosphoinositol turnover in neonatal rat cardiomyocytes; test: Phosphoinositol turnover in primary cardiomyocyte cultures; format: cell-based
Procedure: Neonatal Wistar rats (1-2 days old) are used. Hank's calcium- and magnesium-free balanced salt solution, buffered with 10 mM HEPES is used for washing during cell separation procedures. The hearts are excised, the ventricles isolated and the tissue cut into small pieces. The myocardial cells are isolated by stepwise enzymatic degradation with collagenase 0.05%, as described by ^[35]. After repeated rounds of centrifugation and washing, the precipitated cells are resuspended in culture medium M199 with Earle's salt, 10% NCS, penicillin (75 U/mL), and streptomycin (75 U/mL) and pre-plated in a Petri dish for 90 minutes. The non-adherent cells are collected in the culture medium and plated in multidishes at 2.5*10^5 cells/well. The cultures are kept in a water-saturated CO2-incubator at 37° C. The cardiomyocyte cultures are used for analyses after 6-7 days.
Cardiomyocyte cultures are incubated for 48 hours in culture medium containing 4 μCi/mL myo-[2-^3H]inositol to label the inositol phospholipids. On the day of analysis the medium is replaced by a buffer solution containing lithium and incubated at 37° C., as described by Meier et al.^[36]. After at least five minutes this buffer is replaced by the same volume of buffer containing test compound and incubated for exactly 20 minutes. The reaction is stopped by rapid replacement of the buffer by ice cold 4% v/v perchloric acid (PCA) and incubation for at least 20 minutes at 0° C. The PCA-extract is neutralised and the [^3H]inositol phosphates are separated by anion-exchange chromatography using Amprep™ columns containing 100 mg SAX Quaternary amine. The [^3H]inositol mono-phosphates are eluted and radioactivity in the fraction measured by liquid scintillation counting.
Before adding test substances to the cultures, the cells are depleted of glucose and oxygen by incubating them in a N2-atmosphere in glucose-free lithium-buffer for 10 minutes at 37° C. Control cells are incubated likewise only at normal atmospheric conditions and in a buffer containing glucose.

[2] = test system: calcium-induced arrythmias; test: Calcium-induced arrhythmia model in mice (CaCl2-induced 2nd degree AV-block); format: in vivo; conditions: for CaCl2 mice In vivo, % / CaCl2 mice Score: calcium chloride induced arrythmia model; for In vivo activity: maximal effect, increase in time until 2nd degree AV-block relative to vehicle treated mice, i.v.
Procedure: The antiarrhythmic effects of compounds of this invention were tested in an in vivo model of calcium-induced arrythmias according to the model of Lynch et al.^[37]. […]. Commercial solutions of hypnorm and midazolam were diluted 1:1 in distilled water and one part diluted Hypnorm® is mixed with one part diluted midazolam.
The anaesthesia was induced by s.c. administration in a dose of 0.05-0.075 μl/10 gram mouse. An i.v. cannula was inserted into the tail vein. The lead II ECG signal was recorded continuously by positioning of a stainless steel ECG electrodes on the right forelimb and on the left hind limb. The ground electrode was placed on the right hind limb. The signal was amplified (×5.000-10.000) and filtered (0.1-150 Hz) via a Hugo Sachs Electronic model 689 ECG module. The analogue signal was digitised via a 12 bit data acquisition board (Data Translation model DT321) and sampled at 1000 Hz using the Notocord HEM 3.1 software for Windows NT. After a 10-min equilibration period, the test sample of drug was injected into the tail vein. Mice pre-treated with vehicle were tested as a measure of the control level in untreated animals. The injection volume was 100 μl in all experiments. Infusion of CaCl2 (30 mg/ml, 0.1 ml/min≈100 mg/kg/min (calciumchlorid-2-hydrat, Riedel-de Haën, Germany)) was started 3 min after i.v. administration of drug or vehicle.
The time lag to onset of 2nd degree AV-block was determined as the time from the start of CaCl2 infusion until the first arrhythmic event occured. An event of 2nd degree AV-block was defined as intermittent failure of the AV conduction characterised by a P-wave without the concomitant QRS complex.
Responses were expressed relative to the time until 2nd degree AV-block occurred in vehicle treated mice.

[3] = test system: WB-F344 rat liver epithelial cells; conditions: cited from earlier work
[4] = test system: connexin 43 in keratinocytes; conditions: keratinocytes of middel aged and elderly people; cited from earlier work
GJIC = conditions: 10(−10) to 10(−6) M; cited from earlier work
[5] = test system: cerulein-induced acute pancreatitis; conditions: 100 mg/kg orally; pancreatitis group 19%; cited from earlier work
[6] = test system: membranes from rabbit heart; conditions: cited from earlier work
[7] = test system: regional ischemia in the rabbit; conditions: cited from earlier work
[8] = In vitro plasma and serum stability, human; format: in vitro ADME; conditions: for T½, PLASMA, HEPARIN HUMAN: 37° C., 0.1 mg/ml
Procedure: (§1) The stability of peptides is analysed in serum and plasma. The peptides are incubated at 37° C. in plasma or serum and samples taken at approx. 9 regular intervals between t=0 and t=156 min are analysed by HPLC.
(§2) This is done by subsequent injections of the drug, plasma, and a co-injection with the drug and the plasma, followed by optimisation of the LC method parameters until a satisfactory separation is obtained. Three parallel experiments are performed for each plasma type. 100 ml of peptide is mixed with 900 ml plasma at t=0 and incubated at 37° C. (drug-plasma mixture conc. 0.1 mg/ml). Samples of 100 ml of the drug-plasma mixture are removed at appropriate intervals and the degradation stopped by precipitation of the sample with 10 ml MeCN:TFA 50:50 v/v. A control plasma sample without the drug treated in the same manner is also taken. The plasma samples are centrifuged for 15 min. at 12,000 rpm (Eppendorf centrifuge) at ambient temperature. The resulting supernatant solution is transferred to 300 ml HP autosamler vials and analyzed by HPLC. The samples are analyzed in the following order: blank, the peptide at 0.1 mg/mL, the plasma without the peptide, the three parallel samples for t=0, the three parallel samples for t=5 min. the three parallel samples for t=10 min. etc. And finally the three parallel samples for t=0 are repeated to make sure that there have been no degradation or other failure during the analyses. The sample concentrations (peak height in mAU) are plotted vs. time and fitted to a function describing a mono exponential decay (Excel).

[9] = In vitro plasma and serum stability, rabbit; format: in vitro ADME; conditions: 37° C., 0.1 mg/ml
Procedure: as §1
as §2, with “And finally the three parallel samples for t=0 are repeated to make sure that there have been no degradation or other failure during the analyses. The sample concentrations (peak height in mAU) are plotted vs. time and fitted to a function describing a mono exponential decay (Excel).” left out

Clc1ccc(C(c2ccc(Cl)cc2)C(Cl)(Cl)Cl)cc1 [DDT, 1,1-bis(p-chlorophenyl)-2,2,2-trichlorethane, reference compound]
cellular coupling, median number of cells with dye (human osteoblastic cells): 7 cells

NC[C@H](O)c1ccc(O)c(O)c1 [Noradrenaline]
Emax of phosphoinositol turnover ([1]; atmosphere of N2 and depleted of glucose): 2248±702 cpm | Emax of phosphoinositol turnover ([1]; normal atmospheric and nutritional conditions): 3852±266 cpm

Oc1ccc(C=Cc2cc(O)cc(O)c2)cc1 [Resveratrol, resveratrol]
time until calcium-induced block relative to animals treated with vehicle ([2]; iv, 0.1 umol/kg): 136±9% | prevention of down-regulation of GJIC by DDT, factor ([3]; 17-50 microM): 1.8 | prevention of down-regulation of GJIC by TPA, factor ([3]; 17-50 microM): 2.7 | increase of GJIC, factor compared with solvent vehicle controls ([3]; 17 to 50 microM, 6 h): 1.3

COc1cc2c(cc1O)C[C@H]1c3c(cc(O)c(OC)c3-2)CCN1C [boldine]
optimal concentration for increase of the content of connexin 43 [4]: 50 nM

Nc1nc(N)nc(-c2cc(Cl)ccc2Cl)n1 [irsogladine, 6-(2,5-dichlorophenyl)-2,4-diamino-1,3,5-triazine]
effect on GJIC, compound alone (GJIC): did not affect GJIC | number of Cx32 grains, % of the normal control value [5]: 70%

H-GAG[Hyp]PY-NH2 [AAP10]
value given for AAP10 by Dhein et al. [6]: 0.2 nM | EC50 relative to the EC50 value for Compound 2 ([1]; metabolic stress induced by anoxia and glucose deprivation): 10 fold | EC50 relative to the EC50 value for Compound 2 ([1]; normoxia): 200 fold | CaCl2 mice In vivo, % [2]: 76 +/− 21% | CaCl2 mice Score [2]: 3 | In vivo activity [2]: +++ (+++ refers to >60% increase in time until arrhythmia) | concentration of maximal effect on dispersion of the epicardial activation-recovery interval [7]: 10^−8 mol/l

H-PYNGAG[Hyp]-NH2 [Compound 27]
stability in plasma and serum compared with AAP10 [8]: considerably more stable

cyclo(GAG[Hyp]PYN) [Compound 36]
T½, PLASMA, HEPARIN RABBIT [9]: 30 hrs ± 8% | CaCl2 mice In vivo, % [2]: 57 +/− 8% | CaCl2 mice Score [2]: 2 | In vivo activity [2]: +++ (+++ refers to >60% increase in time until arrhythmia) | Human plasma half life [8]: 13 h | T½, PLASMA, HEPARIN HUMAN [8]: 9 hrs ± 1%

cyclo(GAG[Hyp]PYQ) [Compound 35]
T½, PLASMA, HEPARIN RABBIT [9]: 14 hrs ± 2% | CaCl2 mice In vivo, % [2]: 48 +/− 14% | CaCl2 mice Score [2]: 2 | In vivo activity [2]: ++ (++ refers to 30-50% increase in time until arrhythmia) | Human plasma half life [8]: 15 h | T½, PLASMA, HEPARIN HUMAN [8]: 15 hrs ± 1%
